Test results from patent US20230190760A1, “ADVANTAGEOUS THERAPIES FOR DISORDERS MEDIATED BY IKAROS OR AIOLOS” (C4 Therapeutics, Inc., priority 2020, published 2023).

Experiments:
tumor xenografts = assay: Mouse xenograft tumor models (summary); assay type: in vivo
Protocol: Compound 1 efficacy in two multiple myeloma cell lines (NC-H929) and (RPMI-8226) was evaluated at four different doses: 3 μg/kg, 10 μg/kg, 30 μg/kg, and 100 μg/kg. Compound 1 was administered QD (every day) orally (PO). […]

[1] = test system: IMiD-resistant NCIH929 cells; assay: Growth of IMiD-resistant NCIH929 cells (CellTiter-Glo)
Protocol: Briefly, test compound was added to 384-well plates at a top concentration of 10 μM with 14 points, half log titration in duplicates. NCIH929 cells were seeded into the 384-well plates in RPMI medium containing 10% FBS and 0.05 mM 2-mercaptoethanol at a cell density of 750 cells per well. Cells treated in the absence of the test compound were the negative control and cells treated in the absence of CellTiter-Glo® 2.0 were the positive control. Cells treated with the test compounds were incubated at 37° C. with 5% CO2 for 96 hr. CellTiter-Glo reagent was then added to the cells and luminescence was acquired on EnVision™ Multilabel Reader (PerkinElmer, Santa Clara, Calif., USA). % Viability was determined by normalizing the signal with positive and DMSO treated negative controls on the same microtiter plate.

[2] = test system: IKZF1, IKZF3, IRF-1, IRF-4 and Caspase-3; assay: KI-JK ALCL tumor protein expression, western blot (Example 20); assay type: in vivo, mice; conditions: 100 μg/kg PO
Protocol: A second xenograft study was conducted in female NOD SCID mice bearing KI-JK ALCL tumors. […] Once tumors reached a mean tumor volume (MTV) of 450 mm^3 they were stratified into two groups.
For the vehicle control group, 2 mice were sacrificed, and tumors harvested 24 hours post a single dose. Mice in the Compound 1 group were sampled at 4- and 24-hours post dose a single dose, with two tumors collected per time point. Additional mice were dosed daily for 5 or 7 days with tumor collections 24 hours post last dose, with 2 mice sampled per time point. Tumors were then mechanically homogenized, and protein extracted using RIPA buffer (Sigma Aldrich). Protein concentration was quantified using a Pierce™ BCA Protein Assay Kit, samples were reduced, and equal protein amounts were then loaded onto a western blot gel for analysis. Tumors were analyzed for IKZF1 (Invitrogen, PA5-23728), IKZF3 (CST, 15103), IRF-1 (CST, 8478), IFR-4 (CST, 15106), and Caspase-3 (CST, 9662) expression. […] Data is expressed as percentage of each target in comparison to the target level measured in the vehicle control and normalized to GAPDH levels to control for protein loading. Error bars represent ±SEM values.

[3] = test system: mantel cell lymphoma (MCL) cell lines; assay: Anti-cancer activity in MCL cell lines; assay type: cell-based; conditions: four of six lines tested were responsive; read-out: mean IC50 among the responsive lines
H929 = assay: Anti-proliferative activity, 96 hours; conditions: Homo sapiens, NCI-H929, 96 h
IKZF1 [4] = molecular target: T1, IKZF1 (Rattus norvegicus, UniProt A0A0G2JVD9); assay: Ex vivo IKZF1 degradation in PBMC, rat; assay type: cell-based; conditions: rat cells
T1 construct: from tissue; host or cells: peripheral blood cells (PBMC) of rats, ex vivo
T1 sequence (A0A0G2JVD9 1-562): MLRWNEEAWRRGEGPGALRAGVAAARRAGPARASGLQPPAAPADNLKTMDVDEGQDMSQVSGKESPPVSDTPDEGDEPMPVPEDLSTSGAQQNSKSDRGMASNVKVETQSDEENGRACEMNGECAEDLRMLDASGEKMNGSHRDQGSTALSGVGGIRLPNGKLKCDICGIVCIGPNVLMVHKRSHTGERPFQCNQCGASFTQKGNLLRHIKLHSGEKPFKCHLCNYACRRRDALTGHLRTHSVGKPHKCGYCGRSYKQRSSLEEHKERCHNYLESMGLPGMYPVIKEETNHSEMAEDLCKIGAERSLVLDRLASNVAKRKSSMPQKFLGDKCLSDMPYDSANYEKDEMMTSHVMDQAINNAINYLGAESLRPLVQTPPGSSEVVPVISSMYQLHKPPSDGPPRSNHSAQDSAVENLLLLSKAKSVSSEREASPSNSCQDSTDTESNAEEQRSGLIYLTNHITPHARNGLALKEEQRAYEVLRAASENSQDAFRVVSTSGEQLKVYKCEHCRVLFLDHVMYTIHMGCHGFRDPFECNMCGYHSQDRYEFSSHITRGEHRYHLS
T1 sequence (Q56AP7 whole entry partner): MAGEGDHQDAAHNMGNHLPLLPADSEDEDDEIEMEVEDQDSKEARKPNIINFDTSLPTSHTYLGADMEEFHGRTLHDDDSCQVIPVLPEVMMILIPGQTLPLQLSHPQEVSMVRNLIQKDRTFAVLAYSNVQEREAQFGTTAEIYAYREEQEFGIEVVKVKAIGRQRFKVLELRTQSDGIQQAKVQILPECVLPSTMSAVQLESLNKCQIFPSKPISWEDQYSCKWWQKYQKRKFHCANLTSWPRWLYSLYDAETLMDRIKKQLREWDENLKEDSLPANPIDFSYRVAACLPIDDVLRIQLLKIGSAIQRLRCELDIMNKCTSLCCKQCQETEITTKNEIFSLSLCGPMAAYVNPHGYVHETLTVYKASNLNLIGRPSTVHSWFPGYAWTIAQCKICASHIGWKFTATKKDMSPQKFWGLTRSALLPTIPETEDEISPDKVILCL
Protocol: (§1) IKZF1/3 are not degraded in mouse cells treated with thalidomide or its IMiD® analogs because of a single amino acid difference in mouse cereblon compared to human cereblon that causes steric hindrance and prevents recruitment of IKZF1/3. Ex vivo studies were performed in peripheral blood cells (PBMC) of mice, rats, dogs, and monkeys to identify relevant species for IND enabling-toxicity studies based on the degree of IKZF1 degradation by Compound 1. IKZF1 was not degraded in mouse or rat cells by Compound 1, thus, while rat could not be considered a pharmacologically relevant species for human risk assessment, it was chosen as the rodent species for toxicological studies because it is widely used in toxicity testing and a substantial historical toxicology database is available. […] Therefore, cynomolgus monkey was chosen for non-rodent toxicological studies.

DL-40 ALCL tumors [5] = assay: DL-40 ALCL xenograft efficacy (Example 18); assay type: in vivo, mice; conditions: PO daily for 21 days
Protocol: A xenograft study was conducted in female NOD SCID mice bearing DL-40 ALCL tumors.
(§2) Data are expressed as MTV±SEM.

SU-DHL-5 = assay: Anti-proliferative activity, 96 hours; conditions: Homo sapiens, SU-DHL-5, 96 h
HuT 102 = assay: Anti-proliferative activity, 96 hours; conditions: HuT-102, 96 h
H929 PomR tumors = assay: Pomalidomide resistant H929 PomR xenograft; assay type: in vivo, mice; conditions: 100 μg/kg/day PO
From the text: as §2

DL-40 ALCL tumors [6] = assay: DL-40 ALCL xenograft efficacy (Example 19); assay type: in vivo, mice
Protocol: A xenograft study was conducted in female NOD SCID mice bearing DL-40 ALCL tumors. […]

KIJK = assay: Anti-proliferative activity, 96 hours
SR = assay: Anti-proliferative activity, 96 hours; conditions: Homo sapiens
Mino = assay: Anti-proliferative activity, 96 hours; conditions: Homo sapiens
[7] = test system: activated B-cell DLBCL lines; assay: Anti-cancer activity in ABC-DLBCL cell lines; assay type: cell-based; conditions: three of six responsive, read-out: mean IC50 amongst the responsive lines
[8] = test system: Caspase 3/7 activity in NCIH929 multiple myeloma cells; assay: Apoptosis induction, Caspase 3/7 activity in NCIH929 cells; assay type: cell-based
Protocol: 30 μL NCIH929 cells were seeded into the 384-well plates in RPMI medium containing 10% FBS and 0.05 mM 2-mercaptoethanol at a cell density of 1000 cells per well. Cells treated in the absence of the test compound were the negative control. Following compound treatment, cells were incubated at 37° C. with 5% CO2 for 72 hr. 30 μL reconstituted Caspase 3/7 Assay detection reagent was added to each well and luminescence was acquired on EnVision™ Multilabel Reader (PerkinElmer, Santa Clara, Calif., USA).

IKZF1 [9] = molecular target: IKZF1 (Homo sapiens, UniProt Q13422+Q96SW2); assay: Ikaros degradation in Ki-JK cells by flow cytometry; assay type: cell-based; design: host or cells: Ki-JK cells
Sequence of IKZF1 (Homo sapiens, UniProt Q13422+Q96SW2) (Q13422 whole entry): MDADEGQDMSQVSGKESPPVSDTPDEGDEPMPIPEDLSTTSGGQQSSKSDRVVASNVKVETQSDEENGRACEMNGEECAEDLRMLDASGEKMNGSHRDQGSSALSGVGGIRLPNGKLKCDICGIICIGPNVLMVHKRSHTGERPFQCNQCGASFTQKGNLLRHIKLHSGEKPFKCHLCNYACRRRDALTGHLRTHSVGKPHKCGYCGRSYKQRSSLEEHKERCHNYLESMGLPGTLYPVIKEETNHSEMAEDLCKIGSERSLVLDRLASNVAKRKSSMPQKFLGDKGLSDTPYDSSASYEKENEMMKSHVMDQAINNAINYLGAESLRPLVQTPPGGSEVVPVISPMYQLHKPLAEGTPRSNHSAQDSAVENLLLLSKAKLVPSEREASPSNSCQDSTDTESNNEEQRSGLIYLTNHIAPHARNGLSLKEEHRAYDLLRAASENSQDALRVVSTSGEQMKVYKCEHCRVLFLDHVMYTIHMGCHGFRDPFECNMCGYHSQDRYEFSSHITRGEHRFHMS
Sequence of IKZF1 (Homo sapiens, UniProt Q13422+Q96SW2) (Q96SW2 whole entry): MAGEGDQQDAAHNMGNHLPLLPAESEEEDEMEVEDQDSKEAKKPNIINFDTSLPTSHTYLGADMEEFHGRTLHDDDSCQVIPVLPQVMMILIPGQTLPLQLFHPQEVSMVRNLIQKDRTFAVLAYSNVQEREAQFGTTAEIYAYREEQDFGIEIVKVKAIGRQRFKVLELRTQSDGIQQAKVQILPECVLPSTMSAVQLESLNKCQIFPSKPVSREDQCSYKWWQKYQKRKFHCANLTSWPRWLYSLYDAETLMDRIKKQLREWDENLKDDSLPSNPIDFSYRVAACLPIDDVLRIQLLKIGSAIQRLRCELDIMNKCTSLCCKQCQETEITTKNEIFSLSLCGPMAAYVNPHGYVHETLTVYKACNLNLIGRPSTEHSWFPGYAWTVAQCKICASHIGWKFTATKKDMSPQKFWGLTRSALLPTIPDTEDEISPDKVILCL
Sequence of IKZF1 (Homo sapiens, UniProt Q13422+Q96SW2) (Q16531 2-1140 partner limits assumed): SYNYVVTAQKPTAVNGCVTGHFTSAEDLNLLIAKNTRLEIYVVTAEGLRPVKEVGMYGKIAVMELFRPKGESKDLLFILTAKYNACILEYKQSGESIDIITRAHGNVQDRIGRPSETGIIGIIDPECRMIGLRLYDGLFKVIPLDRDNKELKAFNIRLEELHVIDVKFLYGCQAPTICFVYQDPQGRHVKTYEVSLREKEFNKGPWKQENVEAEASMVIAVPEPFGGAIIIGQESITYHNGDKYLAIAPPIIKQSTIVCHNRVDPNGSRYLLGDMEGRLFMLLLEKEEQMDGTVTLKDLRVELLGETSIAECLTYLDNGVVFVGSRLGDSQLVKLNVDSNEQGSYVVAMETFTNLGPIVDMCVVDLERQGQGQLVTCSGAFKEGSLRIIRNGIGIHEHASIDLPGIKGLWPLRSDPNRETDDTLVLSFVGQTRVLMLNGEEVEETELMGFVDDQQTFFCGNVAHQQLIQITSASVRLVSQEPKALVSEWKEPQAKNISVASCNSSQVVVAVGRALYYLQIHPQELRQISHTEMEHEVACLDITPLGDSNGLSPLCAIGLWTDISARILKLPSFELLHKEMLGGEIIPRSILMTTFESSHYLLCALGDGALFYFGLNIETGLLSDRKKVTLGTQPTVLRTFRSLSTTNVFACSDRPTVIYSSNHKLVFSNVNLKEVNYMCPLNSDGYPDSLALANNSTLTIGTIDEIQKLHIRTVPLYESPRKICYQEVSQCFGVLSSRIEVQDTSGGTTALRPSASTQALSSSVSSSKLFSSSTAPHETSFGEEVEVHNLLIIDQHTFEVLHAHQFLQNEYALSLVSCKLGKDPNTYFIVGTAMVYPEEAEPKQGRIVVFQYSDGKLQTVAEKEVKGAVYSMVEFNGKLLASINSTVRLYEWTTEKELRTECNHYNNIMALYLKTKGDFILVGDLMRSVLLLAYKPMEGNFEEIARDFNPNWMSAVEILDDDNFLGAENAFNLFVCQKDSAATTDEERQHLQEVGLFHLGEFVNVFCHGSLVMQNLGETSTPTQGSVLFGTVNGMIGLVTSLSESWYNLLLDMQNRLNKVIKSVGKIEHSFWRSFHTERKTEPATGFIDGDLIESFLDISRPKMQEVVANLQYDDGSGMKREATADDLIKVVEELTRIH
Protocol: Flow cytometry was used to assess the Ikaros degradation characteristics and evaluate the mechanism of Compound 1. […] The cells were prepared for staining using the FOXP3 Fix/Perm Buffer Set (BioLegend, 421403) according to the manufacturer's instructions at 1.5, 3, and 6 hours. IKZF1-AF488 (564867) and IgG1-488 (557782) (BD Biosciences) were diluted 1:100 in Perm Buffer. Signal was detected using the Guava® easyCyte™ Flow Cytometer. […] Degradation was not observed with the combination of Compound 1 and bortezomib or MLN-4924.

IKZF1/3 = assay: Ex vivo IKZF1/3 degradation in PBMC, cynomolgus monkey; assay type: cell-based; conditions: cynomolgus monkey cells
Protocol: as §1

KI-JK ALCL tumors = assay: KI-JK ALCL xenograft efficacy (Example 20); assay type: in vivo, mice; conditions: 100 μg/kg PO daily for 21 days
Protocol: A xenograft study was conducted in female NOD SCID mice bearing KI-JK ALCL tumors.
as §2

In the case of O=C1CC[C@H](N2C(=O)c3cccc4c(Cc5ccc(CN6CCOCC6)cc5)ccc2c34)C(=O)N1 (single isomer, unassigned) [Compound 1], the tumor response (tumor xenografts; daily dosing at 30 μg/kg/day to 100 μg/kg/day, several tumor xenografts) is reported as “durable tumor regression”, the efficacy (tumor xenografts; from 3 μg/kg/day to 100 μg/kg/day) is reported as “dose dependent efficacy” and the maximal inhibition ([1]; 96 hours) is reported as 70%. The IC50 ([1]; Homo sapiens, NCI-H929, 96 h) was 2.3 nM, the “concentration of caspase-3 and IRF-1” value [2] was “increased” and the “percentage of IKZF1, IKZF3, and IRF-4” value [2] was “decreased”. The IC50 [3] was 13 nM, the IC50 (H929) was 0.073 nM and the IKZF1 degradation (IKZF1 [4]) was “not degraded”. The “tumor volume versus pomalidomide” value (DL-40 ALCL tumors [5]) was “more successful at decreasing tumor volume than pomalidomide”, the IC50 (SU-DHL-5) was 6.37 nM and the IC50 (HuT 102) was 15.4 nM. For the same compound, the “tumors versus pomalidomide 3000 μg/kg/day” value (H929 PomR tumors) was “smaller”, the “Statistical Significance Compared to Vehicle” value (DL-40 ALCL tumors [6]; 3 μg/kg PO daily) was 0.0111 and the “Statistical Significance Compared to Vehicle” value (DL-40 ALCL tumors [6]; 10 μg/kg PO daily) was 0.0006. The “Statistical Significance Compared to Vehicle” value (DL-40 ALCL tumors [6]; 30 μg/kg PO daily) was 0.0004, the “Statistical Significance Compared to Vehicle” value (DL-40 ALCL tumors [6]; 100 μg/kg PO daily) was 0.0004 and the “Statistical Significance Compared to Vehicle” value (DL-40 ALCL tumors [6]; 300 μg/kg PO daily) was 0.0004. The tumor volume (DL-40 ALCL tumors [6]; 30, 100, and 300 μg/kg, 21 days) was “able to reduce tumor volume”, the IC50 (KIJK) was 0.583 nM and the IC50 (SR) was 16.2 nM. The IC50 (Mino) was 0.194 nM, the IC50 [7] was 1.6 nM and the “Maximum caspase 3/7 activity” value ([8]; 72 hours) was > 2 fold. The EC50 ([8]; Homo sapiens, NCI-H929, 72 h, read-out: EC50, caspase 3/7 activity) was 0.58 nM, the “time of maximal Ikaros degradation” value (IKZF1 [9]; 0.001-100 nM, read at 1.5, 3 and 6 hours) was 6 h and the “Ikaros degradation with proteasome or neddylation inhibitor” value (IKZF1 [9]; with bortezomib (10 μM) or MLN-4924 (10 μM), 6 hours) was “not observed”. The “degrading IKZF1/3” value (IKZF1/3) was “highly effective” and the tumor volume (KI-JK ALCL tumors) was “reduced tumor volume”.
